By IC50 is commonly meant the midpoint of a concentration-inhibition curve. Low readings indicate higher potency, high ones lower potency.

These results are taken from EP0885186B1, “AMINO ACID DERIVATIVES, PHARMACEUTICAL COMPOSITIONS CONTAINING THESE COMPOUNDS AND PROCESSES FOR PREPARING THEM” (Dr. Karl Thomae GmbH, priority 1995, dated 1997).

For assay [1], the system named is NPY-induced blood pressure effects. Briefly: In vivo NPY-antagonism, pithed rats, NPY-induced increase in diastolic blood pressure. The note with it: test substance injected 1 min before NPY 10 µg/kg i.v. As to the method:
C. In vivo NPY-antagonism
Male rats of normal blood pressure (Chbb:THOM, 300 to 350 g) are anaesthetised with sodium hexobarbital (150 mg/kg, i.p.). After intubation of the trachea the animals are pithed by introducing a blunt needle through the eye into the spinal bone marrow channel. The animals are ventilated with oxygen-rich ambient air using a respiratory pump (20 strokes/minute). A cannula is inserted in the left carotid artery and the arterial blood pressure is measured using a pressure gauge (Braun Melsungen Combitrans) connected to a recording device. For injection purposes a catheter is placed in the left jugular vein through which heparin is administered (200 IU/kg, i.v.). After the blood pressure has been stabilised, the animals are given 2 bolus injections of NPY (10 µg/kg, i.v.) at intervals of 15 minutes. The average increase in diastolic blood pressure is taken as the reference value (= 100%). The test substances are injected in increasing doses (4 to 6 doses) at intervals of 15 minutes. One minute after administration of the test substance, NPY is administered.
The antagonistic effect of the test substances is determined by plotting the percentage inhibition of the NPY-induced blood pressure effects against the logarithm of the concentration of active substance.

For assay [2], the system named is NPY activity. Briefly: NPY-antagonism in vitro, isolated perfused rat kidney, NPY-induced perfusion pressure increase. On the set-up: species or system rats. The note with it: inhibition of pressure increase by NPY (1µM) bolus. On the procedure: B. NPY-antagonism in vitro
Male rats (CHbb: THOM, 300 to 350 g) are given heparin (100 IU, i.v.) and the animals are then killed by a blow to the back of the neck. The abdomen is opened along the centre of the body and the left kidney is removed after the insertion of catheters in the renal artery, renal vein and ureter. The isolated kidney is immediately perfused with a modified Krebs-Ringer solution having the following composition (4 ml/minute):
A mixture of 95% O2/5% CO2 is passed through the solution which is kept at a temperature of 37°C. The perfusion pressure is measured continuously using a pressure gauge. After a 60 minute stabilisation period the perfusion rate is adjusted so as to obtain a perfusion pressure of approximately 100 mm Hg. After a further 30 minutes the experiment is started and NPY (1µM) is administered as a bolus (0.1 ml) at 15 minute intervals until the pressure increase observed reaches a constant value. The compounds to be tested are given in the form of a continuous infusion over a period of 5 minutes and then NPY is injected. After a 30 minute wash-out period the next highest concentration of test substance is investigated. 3 to 5 different concentrations of the particular compound are tested on each occasion. […]

Assay [3] has as its target T1, NPY-Y1 receptor (Homo sapiens, UniProt P25929).
T1 construct: endogenous in cells; host or cells: SK-N-MC cells (whole cells in suspension)
T1 sequence (P25929 1-384): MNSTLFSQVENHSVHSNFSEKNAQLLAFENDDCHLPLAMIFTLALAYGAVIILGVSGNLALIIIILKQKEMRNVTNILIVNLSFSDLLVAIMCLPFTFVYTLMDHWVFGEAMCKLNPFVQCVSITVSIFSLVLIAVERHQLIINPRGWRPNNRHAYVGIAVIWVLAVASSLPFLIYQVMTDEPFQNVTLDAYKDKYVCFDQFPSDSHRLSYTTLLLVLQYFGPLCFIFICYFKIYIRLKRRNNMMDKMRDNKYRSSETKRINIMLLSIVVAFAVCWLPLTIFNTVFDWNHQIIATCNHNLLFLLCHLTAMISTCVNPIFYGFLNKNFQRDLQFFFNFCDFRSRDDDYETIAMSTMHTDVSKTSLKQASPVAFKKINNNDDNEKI
Briefly: Studies of binding with SK-N-MC cells, displacement of [125I]-Bolton-Hunter-NPY. Particulars: inhibition of specific binding of [125I]-Bolton-Hunter-NPY, 3 hours at ambient temperature. On the procedure:
A. Studies of binding with SK-N-MC cells (expressing the human Y1-receptor)
The cells are detached using a mixture of 0.02% EDTA in PBS and resuspended in 10 ml of incubation medium (MEM/25 mM Hepes + 0.5% BSA, 50 µM PMSF, 0.1% bacitracin, 3.75 mM CaCl2) per 40 million cells approx. After 5 minutes' centrifuging (150 x g) the pellet is resuspended in the same volume and, after a further washing step in 10 ml of incubation medium, counted and diluted to 1.25 million cells/ml. Then 200 µl of a suspension of 1.25 million cells/ml is incubated for 3 hours at ambient temperature with 25 µl of a 300 pM solution of [^125I]-Bolton-Hunter-NPY and increasing concentrations (10^-11 to 10^-6 M) of the test substances, whilst maintaining a total volume of 250 µl. Incubation is ended by centrifuging (10 minutes at 3000 x g and 4°C). After washing once with PBS, the radioactivity of the pellet is measured in a gamma counter. The radioactivity thus obtained represents the sum of specific and non-specific binding of [^125I]-Bolton-Hunter-NPY. The proportion of non-specific binding is defined as that radioactivity which is bound in the presence of 1 µM NPY. The IC50 values of the unlabelled test substances are determined graphically. They represent the concentration of the test substance in question at which the specific binding of[^125I]-Bolton-Hunter-NPY to the NPY-Y1 receptor is inhibited by 50%.
(Loss of bound radioactivity is the signal in a displacement assay; it reports binding, not function.)

Assay [4] concerns NPY-induced food intake. Put plainly: Food intake in satiated rats after NPY application to the paraventricular nucleus. It is filed as in vivo. The note with it: for Food intake following NPY application: 2 h intake, satiated rats; for % Inhibition of food intake: versus vehicle + NPY. As to the method: D. In vivo Studies in rats: Food intake in satiated rats
For these determinations food intake was measured in normal satiated rats after application of NPY to the paraventricular nucleus (PVN) in the presence or absence of the test compound. Male Chbb: Thom rats weighing between 300 and 350 g were used for all experiments. The rats were individually housed in stainless steel cages where water and food were available ad libitum.
Rats under Pentobarbital anaesthesia were stereotactically implanted with a stainless steel double guide cannula targeted bilaterally at the PVNs. Stereotactic coordinates were: -1.8mm caudal, 0.5mm lateral to bregma and 7.0mm below the skull surface. Injection cannulae extended the guide cannulae by 1 mm. Animals were allowed to recover from surgery for at least 10 days before being used in the experiments. Rats were handled and mock-injected during the one-week recovery period to habituate them to the injection procedure.
Animals treated with both test compounds and NPY were treated first with the test compound. Then, 15 min. after PVN infusion of the test compound or vehicle (control) 1 µg of NPY was administered by PVN infusion.
Food intake was measured by placing preweighed pellets into the cages at the time of NPY injection. Pellets were removed from the cage at 2 h post NPY injection. The food intake of animals treated with test compound was calculated as a percentage of the food intake of control animals, i.e., animals treated with vehicle.

The subject of assay [5] is food-deprived rats. Put plainly: Food intake in food-deprived rats. Particulars: 24 hour food deprived rats, 15 µg, bilaterally, into PVN. In kind it is in vivo. As to the method: Food intake in food-deprived rats
Food-deprivation experiments were conducted with male Chbb:Thom rats weighing between 300 and 350 g. The animals were individually housed for the duration of the study and allowed free access to normal food together with tap water. Food was removed from the animals for 24 hours starting at 8:00 a.m. At the end of the fasting period compound or vehicle was administered to the animals by infusion into the PVN. Food was returned to the animals and their food intake monitored at various time periods during the following 24 hour period. The food intake of animals treated with test compound was calculated as a percentage of the food intake of control animals (i.e., animals treated with vehicle).

In turn, `CN(CCCC(NC(=O)C(c1ccccc1)c1ccccc1)C(=O)NCc1ccc(O)cc1)C(=N)N` (racemic) [(B), (R,S)-N^5-(aminoiminomethyl)-N^2-(diphenylacetyl)-N-[(4-hydroxyphenyl)methyl]-N^5-methyl-ornithinamide] gave a pID50 in assay [1] of 7.87 mol/kg. This compound yielded a pIC50 in assay [2] of 8.41 mol/l. Further, the IC50 in assay [3] was 0.62 nM.
As to `N=C(N)NCCC[C@@H](NC(=O)C(c1ccccc1)c1ccccc1)C(=O)NCc1ccc(CNC(N)=O)cc1` [(A), (R)-N-[[4-(aminocarbonylaminomethyl)phenyl]methyl]-N^2-(diphenylacetyl)-argininamide], the pID50 in assay [1] worked out at 8.11 mol/kg. Also, the figures for the “Food intake following NPY application” value in assay [4] (15 µg of compound by PVN infusion 15 min before 1 µg NPY), in assay [4] (30 µg of compound by PVN infusion 15 min before 1 µg NPY) and in assay [4] (60 µg of compound by PVN infusion 15 min before 1 µg NPY) were 2.62 g/animal, 1.67 g/animal and 1.07 g/animal, respectively. Besides, the figures for the “% Inhibition of food intake” value in assay [4] (15 µg of compound by PVN infusion), in assay [4] (30 µg of compound by PVN infusion) and in assay [4] (60 µg of compound by PVN infusion) were 25.9%, 52.8% and 69.8%, respectively. In addition, in assay [5], the “duration of significant reduction in food intake” value is “at least 4 h”. Moreover, the pIC50 in assay [2] was found to be 8.12 mol/l.
For `N=C(N)NCCC[C@@H](NC(=O)C(c1ccccc1)c1ccccc1)C(=O)NCc1ccc(CC(N)=O)cc1` [(C), (R)-N-[[4-(aminocarbonylmethyl)phenyl]methyl]-N^2-(diphenylacetyl)-argininamide], the IC50 in assay [3] is 0.63 nM.
Compound `CCNC(=O)NCc1ccc(CNC(=O)[C@@H](CCCNC(=N)N)NC(=O)C(c2ccccc2)c2ccccc2)cc1` [(D), (R)-N^2-(diphenylacetyl)-N-[[4-(ethylaminocarbonylamino-methyl)phenyl]methyl]-argininamide] showed an IC50 in assay [3] of 0.75 nM.
Compound `CCOC(=O)CNC(=O)NCc1ccc(CNC(=O)[C@@H](CCCNC(=N)N)NC(=O)C(c2ccccc2)c2ccccc2)cc1` [(E), (R)-N^2-(diphenylacetyl)-N-[[4-(ethoxycarbonylmethylamino-carbonylaminomethyl)-phenyl)methyl]-argininamide] displayed a half-maximal inhibitory concentration (IC50) in assay [3] of 0.4 nM.
Same read-out and setting: then `N=C(N)NCCC[C@@H](NC(=O)C(c1ccc(Cl)cc1)c1ccc(Cl)cc1)C(=O)NCc1ccc(CNC(N)=O)cc1` [(F), (R)-N-[[4-(aminocarbonylaminomethyl)phenyl]methyl]-N^2-[bis-(4-chlorophenyl)-acetyl]-argininamide], with 0.35 nM; and `N=C(N)NCCC[C@@H](NC(=O)C(c1ccc(O)cc1)c1ccc(O)cc1)C(=O)NCc1ccc(CNC(N)=O)cc1` [(G), (R)-N-[[4-(aminocarbonylaminomethyl)phenyl]methyl]-N^2-[bis-(4-hydroxyphenyl)-acetyl]-argininamide], with 0.17 nM.
Take “NPY: NPY, agonist applied to the paraventricular nucleus (1 µg) to elicit feeding response in satiated rats”: the “two hour food intake” value in assay [4] (NPY 1µg into PVN, 0.5 g in animals injected with vehicle) is on record as 3.5 g.
